Results: patent US10294202B2, “Pyrrolidinones as herbicides” (FMC Corporation, priority 2013, dated 2019)

Legend:
blackgrass = assay: Test C pre-/postemergence herbicide test; type: in vivo, Alopecurus myosuroides
In short: (§1)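 Compound solutions contained surfactant in a non-phytotoxic solvent. These were sprayed onto pots of loam/sand sown with seeds, and onto young plants (2 to 18 cm, 1- to 4-leaf) in sphagnum peat–vermiculite mix. Visual injury scores (0 none, 100 complete control) were recorded after 13 to 15 days.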

giant foxtail = assay: Test A pre-/postemergence herbicide test; type: in vivo, Setaria faberii
In short: (§2)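 Formulated compound (non-phytotoxic solvent, surfactant) sprayed pre- onto soil of seeded loam/sand pots or post- onto seedlings at 1–2 leaves; ~10 d greenhouse; 0–100 visual control rating versus untreated.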

oilseed rape = assay: Test C pre-/postemergence herbicide test; type: in vivo, Brassica napus
In short: as §1

corn [1] = assay: Test A pre-/postemergence herbicide test; type: in vivo, Zea mays; conditions: Postemergence
In short: as §2

corn [2] = assay: Test C pre-/postemergence herbicide test; type: in vivo, Zea mays
In short: as §1

galium = assay: Test C pre-/postemergence herbicide test; type: in vivo, Galium aparine
In short: as §1

ragweed = assay: Test C pre-/postemergence herbicide test; type: in vivo, Ambrosia elatior
In short: as §1

sedge, umbrella = assay: Test B flooded paddy test; type: in vivo, Cyperus difformis; conditions: 1000 g ai/ha, Flood; scale of 0 to 100 where 0 is no effect and 100 is complete control
In short: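 In-water application to pots flooded 3 cm deep, plants at 2-leaf stage. Held in greenhouse 13–15 days at constant flood depth. Scored 0–100 by eye against controls.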

wheat = assay: Test A pre-/postemergence herbicide test; type: in vivo, Triticum aestivum; conditions: Postemergence, 125 g ai/ha; visual rating on 0 to 100 scale (0 no effect, 100 complete control), approx. 10 days
In short: as §2

johnsongrass = assay: Test C pre-/postemergence herbicide test; type: in vivo, Sorghum halepense
In short: as §1

foxtail, giant = assay: Test C pre-/postemergence herbicide test; type: in vivo, Setaria faberii
In short: as §1

[3] = Preemergence, 31 g ai/ha, scale 0 to 100, 0 is no effect and 100 is complete control
[4] = Preemergence, 62 g ai/ha, scale 0 to 100 (0 no effect, 100 complete control)
[5] = Preemergence, 125 g ai/ha, scale 0 to 100
[6] = Postemergence, 125 g ai/ha, visual rating on 0 to 100 scale (0 no effect, 100 complete control), approx. 10 days
[7] = Postemergence, 500 g ai/ha, 0 to 100 scale (0 no effect, 100 complete control)
[8] = Preemergence, 125 g ai/ha, 0 to 100 scale where 0 is no effect and 100 is complete control
[9] = Preemergence, 500 g ai/ha, visual rating on 0 to 100 scale (0 no effect, 100 complete control)
[10] = 125 g ai/ha, visual rating on 0 to 100 scale (0 no effect, 100 complete control), approx. 10 days
[11] = 500 g ai/ha, 0 to 100 scale (0 no effect, 100 complete control)
[12] = Postemergence, 31 g ai/ha, scale 0 to 100 (0 no effect, 100 complete control)
[13] = Postemergence, 62 g ai/ha, scale 0 (no effect) to 100 (complete control)
[14] = Postemergence, 125 g ai/ha, scale 0 to 100 (0 no effect, 100 complete control)
[15] = Postemergence, 250 g ai/ha, scale 0 to 100 (0 no effect, 100 complete control)
[16] = Preemergence, 31 g ai/ha, scale 0 to 100

Structure (SMILES): O=C1NCC(c2cccc(C(F)(F)F)c2)C1C(=O)Nc1ccc(F)c(F)c1F (stereo not shown) [Compound 345]
- Blackgrass plant response rating (blackgrass; [3]): 50
- Blackgrass plant response rating (blackgrass; [4]): 50
- Plant response rating, Blackgrass (blackgrass; [5]): 90
- Plant response rating (scale of 0 to 100), Blackgrass (blackgrass; Preemergence, 250 g ai/ha): 90
- Plant response rating, Foxtail, Giant (giant foxtail; [6]): 90
- Plant response rating, Foxtail, Giant (giant foxtail; [7]): 90
- Plant response rating, Foxtail, Giant (giant foxtail; [8]): 90
- Foxtail, Giant plant response rating (giant foxtail; [9]): 90
- Oilseed Rape plant response rating (oilseed rape; [3]): 50
- Oilseed Rape plant response rating (oilseed rape; [4]): 55
- Plant response rating, Oilseed Rape (oilseed rape; [5]): 85
- Plant response rating (scale of 0 to 100), Oilseed Rape (oilseed rape; Preemergence, 250 g ai/ha): 85
- Plant response rating, Corn (corn [1]; [10]): 80
- Plant response rating, Corn (corn [1]; [11]): 90
- Corn plant response rating (corn [2]; [3]): 40
- Corn plant response rating (corn [2]; [4]): 35
- Plant response rating, Corn (corn [2]; [5]): 65
- Plant response rating (scale of 0 to 100), Corn (corn [2]; Preemergence, 250 g ai/ha): 85
- Galium plant response rating (galium; [3]): 20
- Galium plant response rating (galium; [4]): 90
- Plant response rating, Galium (galium; [5]): 90
- Plant response rating (scale of 0 to 100), Galium (galium; Preemergence, 250 g ai/ha): 85
- Ragweed plant response rating (ragweed; [4]): 40
- Plant response rating, Ragweed (ragweed; [5]): 15
- Plant response rating, Sedge, Umbrella (sedge, umbrella): 0
- Plant response rating, Wheat (wheat): 50
- Johnsongrass plant response rating (johnsongrass; [3]): 35
- Johnsongrass plant response rating (johnsongrass; [4]): 75
- Plant response rating, Johnsongrass (johnsongrass; [5]): 85
- Plant response rating (scale of 0 to 100), Johnsongrass (johnsongrass; Preemergence, 250 g ai/ha): 90
- Foxtail, Giant plant response rating (foxtail, giant; [3]): 85
- Foxtail, Giant plant response rating (foxtail, giant; [4]): 90
- Plant response rating, Foxtail, Giant (foxtail, giant; [5]): 95
- Plant response rating (scale of 0 to 100), Foxtail, Giant (foxtail, giant; Preemergence, 250 g ai/ha): 98

Structure (SMILES): O=C1NCC(c2ccc(F)c(F)c2)C1C(=O)Nc1ccc(F)c(F)c1F (stereo not shown) [Compound 346]
- Plant response rating, Blackgrass (blackgrass; [12]): 0
- Plant response rating, Blackgrass (blackgrass; [13]): 0
- Plant response rating, Blackgrass (blackgrass; [14]): 0
- Plant response rating, Blackgrass (blackgrass; [15]): 5
- Blackgrass plant response rating (blackgrass; [4]): 60
- Plant response rating, Blackgrass (blackgrass; [5]): 75
- Plant response rating (scale of 0 to 100), Blackgrass (blackgrass; Preemergence, 250 g ai/ha): 85
- Plant response rating, Blackgrass (blackgrass; [16]): 20
- Plant response rating, Foxtail, Giant (giant foxtail; [6]): 80
- Plant response rating, Foxtail, Giant (giant foxtail; [7]): 90
- Plant response rating, Foxtail, Giant (giant foxtail; [8]): 90
- Foxtail, Giant plant response rating (giant foxtail; [9]): 90
- Plant response rating, Oilseed Rape (oilseed rape; [12]): 0
- Plant response rating, Oilseed Rape (oilseed rape; [13]): 0
- Plant response rating, Oilseed Rape (oilseed rape; [14]): 0
- Plant response rating, Oilseed Rape (oilseed rape; [15]): 0
- Oilseed Rape plant response rating (oilseed rape; [4]): 0
- Plant response rating, Oilseed Rape (oilseed rape; [5]): 50
- Plant response rating (scale of 0 to 100), Oilseed Rape (oilseed rape; Preemergence, 250 g ai/ha): 60
- Plant response rating, Oilseed Rape (oilseed rape; [16]): 0
- Plant response rating, Corn (corn [1]; [10]): 20
- Plant response rating, Corn (corn [1]; [11]): 40
- Plant response rating, Corn (corn [2]; [12]): 0
- Plant response rating, Corn (corn [2]; [13]): 0
- Plant response rating, Corn (corn [2]; [14]): 0
- Plant response rating, Corn (corn [2]; [15]): 0
- Corn plant response rating (corn [2]; [4]): 0
- Plant response rating, Corn (corn [2]; [5]): 0
- Plant response rating (scale of 0 to 100), Corn (corn [2]; Preemergence, 250 g ai/ha): 5
- Plant response rating, Corn (corn [2]; [16]): 0
- Plant response rating, Galium (galium; [12]): 30
- Plant response rating, Galium (galium; [13]): 25
- Plant response rating, Galium (galium; [14]): 40
- Plant response rating, Galium (galium; [15]): 70
- Galium plant response rating (galium; [4]): 20
- Plant response rating, Galium (galium; [5]): 90
- Plant response rating (scale of 0 to 100), Galium (galium; Preemergence, 250 g ai/ha): 90
- Plant response rating, Galium (galium; [16]): 10
- Plant response rating, Ragweed (ragweed; [12]): 0
- Plant response rating, Ragweed (ragweed; [13]): 0
- Plant response rating, Ragweed (ragweed; [14]): 0
- Plant response rating, Ragweed (ragweed; [15]): 20
- Ragweed plant response rating (ragweed; [4]): 35
- Plant response rating, Ragweed (ragweed; [5]): 35
- Plant response rating, Ragweed (ragweed; [16]): 50
- Plant response rating, Sedge, Umbrella (sedge, umbrella): 0
- Plant response rating, Wheat (wheat): 0
- Plant response rating, Johnsongrass (johnsongrass; [12]): 100
- Plant response rating, Johnsongrass (johnsongrass; [13]): 0
- Plant response rating, Johnsongrass (johnsongrass; [14]): 0
- Plant response rating, Johnsongrass (johnsongrass; [15]): 0
- Johnsongrass plant response rating (johnsongrass; [4]): 0
- Plant response rating, Johnsongrass (johnsongrass; [5]): 20
- Plant response rating (scale of 0 to 100), Johnsongrass (johnsongrass; Preemergence, 250 g ai/ha): 60
- Plant response rating, Johnsongrass (johnsongrass; [16]): 0
- Plant response rating, Foxtail, Giant (foxtail, giant; [12]): 20
- Plant response rating, Foxtail, Giant (foxtail, giant; [13]): 0
- Plant response rating, Foxtail, Giant (foxtail, giant; [14]): 40
- Plant response rating, Foxtail, Giant (foxtail, giant; [15]): 85
- Foxtail, Giant plant response rating (foxtail, giant; [4]): 90
- Plant response rating, Foxtail, Giant (foxtail, giant; [5]): 98
- Plant response rating (scale of 0 to 100), Foxtail, Giant (foxtail, giant; Preemergence, 250 g ai/ha): 98
- Plant response rating, Foxtail, Giant (foxtail, giant; [16]): 90
